Where a SMILES comes first, the peptide text is derived from it. [ ]: non-standard residue; d: D form. Tyr(3-F) = N[C@@H](Cc1ccc(O)c(F)c1)C(=O)O; Cha = N[C@@H](CC1CCCCC1)C(=O)O; aThr = C[C@H](O)[C@H](N)C(=O)O; Chg = N[C@H](C(=O)O)C1CCCCC1; Tle = CC(C)(C)[C@H](N)C(=O)O; dDab = NCC[C@@H](N)C(=O)O; Orn = NCCC[C@H](N)C(=O)O; Dab = NCC[C@H](N)C(=O)O; Nva = CCC[C@H](N)C(=O)O; Dap = NC[C@H](N)C(=O)O
Each compound was assayed on human red blood cells (hRBC) (assay: Hemolysis of human red blood cells). Details: red cells of human, 1 h, 100.
Format: cell-based
Method in brief: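 Washed fresh human erythrocytes (20% v/v, about 0.9×10^9 cells/ml final) incubated with peptide at 100 μg/ml for 1 h at 37° C with shaking. Supernatant OD540 read; hemolysis expressed relative to 2.5% Triton X-100 (100%) and PBS with 0.001% acetic acid (0%).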

Row | SMILES | Hemolysis at 100 μg/ml
1 | CC[C@H](C)[C@@H]1NC(=O)[C@@H]2CCCN2C(=O)[C@H]2CCCN2C(=O)[C@H](CO)NC(=O)[C@H](C)NC(=O)[C@H](C(C)(C)C)NC(=O)[C@H](CCN)NC(=O)[C@H](Cc2c[nH]c3ccccc23)NC(=O)[C@H](CCN)NC(=O)[C@@H](CCN)NC(=O)[C@H](CCCN)NC(=O)[C@H](CCN)NC(=O)[C@H](Cc2ccc(O)cc2)NC(=O)[C@H](CC(N)=O)NC1=O [compound 85] (cyclo(INY[Dab][Orn][dDab][Dab]W[Dab][Tle]AS[dP]P)) | 0%
2 | CC[C@H](C)[C@@H]1NC(=O)[C@@H]2CCCN2C(=O)[C@H]2CCCN2C(=O)[C@H](CO)NC(=O)[C@H](C)NC(=O)[C@H](C(C)(C)C)NC(=O)[C@H](CCN)NC(=O)[C@H](Cc2c[nH]c3ccccc23)NC(=O)[C@H](CCN)NC(=O)[C@@H](CCN)NC(=O)[C@H](CCCN)NC(=O)[C@H](CCN)NC(=O)[C@H](Cc2ccc(O)cc2)NC(=O)[C@H]([C@H](C)O)NC1=O [compound 86] (cyclo(I[aThr]Y[Dab][Orn][dDab][Dab]W[Dab][Tle]AS[dP]P)) | 1%
3 | CC(C)C[C@@H]1NC(=O)[C@@H]2CCCN2C(=O)[C@H]2CCCN2C(=O)[C@H](CO)NC(=O)[C@H](C)NC(=O)[C@H](C(C)(C)C)NC(=O)[C@H](CCN)NC(=O)[C@H](Cc2c[nH]c3ccccc23)NC(=O)[C@H](CCN)NC(=O)[C@@H](CCN)NC(=O)[C@H](CCCN)NC(=O)[C@H](CCCN)NC(=O)[C@H](Cc2ccc(O)cc2)NC(=O)[C@H](CO)NC1=O [compound 87] (cyclo(LSY[Orn][Orn][dDab][Dab]W[Dab][Tle]AS[dP]P)) | 1%
4 | CC(C)C[C@@H]1NC(=O)[C@@H]2CCCN2C(=O)[C@H]2CCCN2C(=O)[C@H]([C@@H](C)O)NC(=O)[C@H](C)NC(=O)[C@H](C(C)(C)C)NC(=O)[C@H](CCN)NC(=O)[C@H](Cc2c[nH]c3ccccc23)NC(=O)[C@H](CCN)NC(=O)[C@@H](CCN)NC(=O)[C@H](CCCN)NC(=O)[C@H](CCN)NC(=O)[C@H](Cc2ccc(O)cc2)NC(=O)[C@H](CO)NC1=O [compound 88] (cyclo(LSY[Dab][Orn][dDab][Dab]W[Dab][Tle]AT[dP]P)) | 1%
5 | CCC[C@@H]1NC(=O)[C@@H]2CCCN2C(=O)[C@H]2CCCN2C(=O)[C@H](CO)NC(=O)[C@H](C)NC(=O)[C@H](C2CCCCC2)NC(=O)[C@H](CCN)NC(=O)[C@H](Cc2c[nH]c3ccccc23)NC(=O)[C@H](CCN)NC(=O)[C@@H](CCN)NC(=O)[C@H](CCCN)NC(=O)[C@H](CCN)NC(=O)[C@H](Cc2ccc(O)cc2)NC(=O)[C@H](CO)NC1=O [compound 89] (cyclo([Nva]SY[Dab][Orn][dDab][Dab]W[Dab][Chg]AS[dP]P)) | 0%
6 | CC(C)[C@@H]1NC(=O)[C@@H]2CCCN2C(=O)[C@H]2CCCN2C(=O)[C@H](CO)NC(=O)[C@H](C)NC(=O)[C@H](C2CCCCC2)NC(=O)[C@H](CCN)NC(=O)[C@H](Cc2c[nH]c3ccccc23)NC(=O)[C@H](CCN)NC(=O)[C@@H](CCN)NC(=O)[C@H](CCCN)NC(=O)[C@H](CCN)NC(=O)[C@H](Cc2ccc(O)cc2)NC(=O)[C@H](CO)NC1=O [compound 90] (cyclo(VSY[Dab][Orn][dDab][Dab]W[Dab][Chg]AS[dP]P)) | 2%
7 | CC(C)C[C@@H]1NC(=O)[C@@H]2CCCN2C(=O)[C@H]2CCCN2C(=O)[C@H](CO)NC(=O)[C@H](C)NC(=O)[C@H](C(C)(C)C)NC(=O)[C@H](CCN)NC(=O)[C@H](Cc2c[nH]c3ccccc23)NC(=O)[C@H](CCN)NC(=O)[C@@H](CCN)NC(=O)[C@H](CCCN)NC(=O)[C@H](CN)NC(=O)[C@H](Cc2ccc(O)cc2)NC(=O)[C@H](CO)NC1=O [compound 91] (cyclo(LSY[Dap][Orn][dDab][Dab]W[Dab][Tle]AS[dP]P)) | 0%
8 | CC(C)[C@@H]1NC(=O)[C@@H]2CCCN2C(=O)[C@H]2CCCN2C(=O)[C@H](CO)NC(=O)[C@H](C)NC(=O)[C@H](CC2CCCCC2)NC(=O)[C@H](CCN)NC(=O)[C@H](Cc2c[nH]c3ccccc23)NC(=O)[C@H](CCN)NC(=O)[C@@H](CCN)NC(=O)[C@H](CCCN)NC(=O)[C@H](CCN)NC(=O)[C@H](Cc2ccc(O)cc2)NC(=O)[C@H](CO)NC1=O [compound 92] (cyclo(VSY[Dab][Orn][dDab][Dab]W[Dab][Cha]AS[dP]P)) | 5%
9 | CCC[C@@H]1NC(=O)[C@@H]2CCCN2C(=O)[C@H]2CCCN2C(=O)[C@H](CO)NC(=O)[C@H](C)NC(=O)[C@H](CC2CCCCC2)NC(=O)[C@H](CCN)NC(=O)[C@H](Cc2c[nH]c3ccccc23)NC(=O)[C@H](CCN)NC(=O)[C@@H](CCN)NC(=O)[C@H](CCCN)NC(=O)[C@H](CCN)NC(=O)[C@H](Cc2ccc(O)cc2)NC(=O)[C@H](CO)NC1=O [compound 93] (cyclo([Nva]SY[Dab][Orn][dDab][Dab]W[Dab][Cha]AS[dP]P)) | 5%
10 | CC(C)C[C@@H]1NC(=O)[C@@H]2CCCN2C(=O)[C@H]2CCCN2C(=O)[C@H](CO)NC(=O)[C@H](C)NC(=O)[C@H](C2CCCCC2)NC(=O)[C@H](CCN)NC(=O)[C@H](Cc2c[nH]c3ccccc23)NC(=O)[C@H](CCN)NC(=O)[C@H](CCN)NC(=O)[C@H](CCCN)NC(=O)[C@H](CCN)NC(=O)[C@H](Cc2ccc(O)cc2)NC(=O)[C@H](CO)NC1=O [compound 94] (cyclo(LSY[Dab][Orn][Dab][Dab]W[Dab][Chg]AS[dP]P)) | 0%
11 | CC(C)C[C@@H]1NC(=O)[C@@H]2CCCN2C(=O)[C@H]2CCCN2C(=O)[C@H](CO)NC(=O)[C@H](C)NC(=O)[C@H](C(C)(C)C)NC(=O)[C@H](CCN)NC(=O)[C@H](Cc2c[nH]c3ccccc23)NC(=O)[C@H](CCN)NC(=O)[C@@H](CCN)NC(=O)[C@H](CN)NC(=O)[C@H](CCN)NC(=O)[C@H](Cc2ccc(O)cc2)NC(=O)[C@H](CO)NC1=O [compound 95] (cyclo(LSY[Dab][Dap][dDab][Dab]W[Dab][Tle]AS[dP]P)) | 1%
12 | CC(C)C[C@@H]1NC(=O)[C@@H]2CCCN2C(=O)[C@H]2CCCN2C(=O)[C@H](CO)NC(=O)[C@H](C)NC(=O)[C@H](C(C)(C)C)NC(=O)[C@H](CCN)NC(=O)[C@H](Cc2c[nH]c3ccccc23)NC(=O)[C@H](CCN)NC(=O)[C@@H](CCN)NC(=O)[C@H](CCN)NC(=O)[C@H](CCN)NC(=O)[C@H](Cc2ccc(O)cc2)NC(=O)[C@H](CO)NC1=O [compound 96] (cyclo(LSY[Dab][Dab][dDab][Dab]W[Dab][Tle]AS[dP]P)) | 1%
13 | CC(C)C[C@@H]1NC(=O)[C@@H]2CCCN2C(=O)[C@H]2CCCN2C(=O)[C@H](CO)NC(=O)[C@H](C)NC(=O)[C@H](C(C)(C)C)NC(=O)[C@H](CCCNC(=N)N)NC(=O)[C@H](Cc2c[nH]c3ccccc23)NC(=O)[C@H](CCN)NC(=O)[C@@H](CCN)NC(=O)[C@H](CCCN)NC(=O)[C@H](CCN)NC(=O)[C@H](Cc2ccc(O)cc2)NC(=O)[C@H](CO)NC1=O [compound 97] (cyclo(LSY[Dab][Orn][dDab][Dab]WR[Tle]AS[dP]P)) | 1%
14 | CC(C)C[C@@H]1NC(=O)[C@@H]2CCCN2C(=O)[C@H]2CCCN2C(=O)[C@H](CO)NC(=O)[C@H](C)NC(=O)[C@H](C(C)(C)C)NC(=O)[C@H](CCN)NC(=O)[C@H](Cc2c[nH]c3ccccc23)NC(=O)[C@H](CCN)NC(=O)[C@@H](CCN)NC(=O)[C@H](CCCNC(=N)N)NC(=O)[C@H](CCN)NC(=O)[C@H](Cc2ccc(O)cc2)NC(=O)[C@H](CO)NC1=O [compound 98] (cyclo(LSY[Dab]R[dDab][Dab]W[Dab][Tle]AS[dP]P)) | 1%
15 | CC(C)C[C@@H]1NC(=O)[C@@H]2CCCN2C(=O)[C@H]2CCCN2C(=O)[C@H](CO)NC(=O)[C@H](C)NC(=O)[C@H](C(C)(C)C)NC(=O)[C@H](CCN)NC(=O)[C@H](Cc2c[nH]c3ccccc23)NC(=O)[C@H](CCCN)NC(=O)[C@@H](CCN)NC(=O)[C@H](CCCN)NC(=O)[C@H](CCN)NC(=O)[C@H](Cc2ccc(O)cc2)NC(=O)[C@H](CO)NC1=O [compound 99] (cyclo(LSY[Dab][Orn][dDab][Orn]W[Dab][Tle]AS[dP]P)) | 0%
16 | CC(C)C[C@@H]1NC(=O)[C@@H]2CCCN2C(=O)[C@H]2CCCN2C(=O)[C@H](CO)NC(=O)[C@H](C)NC(=O)[C@H](C(C)(C)C)NC(=O)[C@H](CCCCN)NC(=O)[C@H](Cc2c[nH]c3ccccc23)NC(=O)[C@H](CCN)NC(=O)[C@@H](CCN)NC(=O)[C@H](CCCN)NC(=O)[C@H](CCN)NC(=O)[C@H](Cc2ccc(O)cc2)NC(=O)[C@H](CO)NC1=O [compound 100] (cyclo(LSY[Dab][Orn][dDab][Dab]WK[Tle]AS[dP]P)) | 1%
17 | CC(C)C[C@@H]1NC(=O)[C@@H]2CCCN2C(=O)[C@H]2CCCN2C(=O)[C@H](CO)NC(=O)[C@H](C)NC(=O)[C@H](C(C)(C)C)NC(=O)[C@H](CN)NC(=O)[C@H](Cc2c[nH]c3ccccc23)NC(=O)[C@H](CCN)NC(=O)[C@@H](CCN)NC(=O)[C@H](CCCN)NC(=O)[C@H](CCN)NC(=O)[C@H](Cc2ccc(O)cc2)NC(=O)[C@H](CO)NC1=O [compound 101] (cyclo(LSY[Dab][Orn][dDab][Dab]W[Dap][Tle]AS[dP]P)) | 1%
18 | CC(C)C[C@@H]1NC(=O)[C@@H]2CCCN2C(=O)[C@H]2CCCN2C(=O)[C@H](CO)NC(=O)[C@H](C)NC(=O)[C@H](C(C)(C)C)NC(=O)[C@H](CCN)NC(=O)[C@H](Cc2c[nH]c3ccccc23)NC(=O)[C@H](CCCNC(=N)N)NC(=O)[C@@H](CCN)NC(=O)[C@H](CCCN)NC(=O)[C@H](CCN)NC(=O)[C@H](Cc2ccc(O)cc2)NC(=O)[C@H](CO)NC1=O [compound 102] (cyclo(LSY[Dab][Orn][dDab]RW[Dab][Tle]AS[dP]P)) | 0%
19 | CCC[C@@H]1NC(=O)[C@@H]2CCCN2C(=O)[C@H]2CCCN2C(=O)[C@H](CO)NC(=O)[C@H](C)NC(=O)[C@H](C(C)(C)C)NC(=O)[C@H](CCN)NC(=O)[C@H](Cc2c[nH]c3ccccc23)NC(=O)[C@H](CCN)NC(=O)[C@@H](CCN)NC(=O)[C@H](CCCN)NC(=O)[C@H](CCN)NC(=O)[C@H](Cc2ccc(O)c(F)c2)NC(=O)[C@H](CO)NC1=O [compound 105] (cyclo([Nva]S[Tyr(3-F)][Dab][Orn][dDab][Dab]W[Dab][Tle]AS[dP]P)) | 1%

Reference: US9938322B2, “β-hairpin peptidomimetics” (priority 2013, dated 2018)
